pIC50: −log10 of the molar value. Counter-ions that a name gives are not always drawn.
Legend:
Hela = experiment: In vitro cell growth inhibition assay (MTT); assay type: cell-based, human; settings: Hela human cervical cancer cell line, 48 h, MTT; read-out: IC50 Hela
Description: (§1) 5000 tumor cells per well were seeded into 96-well plate and allowed to adhere overnight. Cells were treated with various concentrations of tested compounds or DMSO (0.2%, as negative control) for 48 h. Then, the medium along with tested compounds or DMSO was discarded and […] per well MTT containing medium (0.5 mg/mL) was added. After incubation at 37° C. for 4 h, the MTT-containing medium was replaced by DMSO (150 μL per well) to dissolve the formazan crystals. Absorbance of the resulting solution was measured by microplate reader (Biotech ELx800) at 540 nm wavelength. Growth inhibition rates were calculated with the absorbance. Half maximal inhibitory concentration (IC50) of each compound was calculated using GraphPad Prism, version 6.0.

MDA-MB-231 = experiment: In vitro cell growth inhibition assay (MTT); assay type: cell-based, human; settings: MDA-MB-231 human breast cancer cell line, 48 h, MTT; read-out: IC50 MDA-MB-231
Description: as §1

SKOV3 = experiment: In vitro cell growth inhibition assay (MTT); assay type: cell-based, human; settings: SK-OV-3; SKOV-3 human ovarian cancer cell line, 48 h, MTT; read-out: IC50 SKOV3
Description: as §1

A2780 = experiment: In vitro cell growth inhibition assay (MTT); assay type: cell-based, human; settings: A2780 human ovarian cancer cell line, 48 h, MTT; read-out: IC50 A2780
Description: as §1

Structure (SMILES)	melting point	pIC50 (Hela)	pIC50 (MDA-MB-231)	pIC50 (SKOV3)	pIC50 (A2780)
C=C1C(=O)N(c2cc(OC)c(OC)c(OC)c2)[C@H]1c1ccc(OC)c(OS(=O)(=O)c2ccc(C)cc2)c1 (as salt: benzenesulfonate) [Compound 27, (S)-2-methoxy-5-(3-methylene-4-oxo-1-(3,4,5-trimethoxyphenyl)azetidin-2-yl)phenyl 4-methylbenzenesulfonate]	162 to 163 °C	–	–	–	–
C=C1C(=O)N(c2cc(OC)c(OC)c(OC)c2)[C@H]1c1ccc(OC)c(OS(=O)(=O)c2ccc(NC(C)=O)cc2)c1 (as salt: benzenesulfonate) [Compound 30, (S)-2-methoxy-5-(3-methylene-4-oxo-1-(3,4,5-trimethoxyphenyl)azetidin-2-yl)phenyl 4-acetamidobenzenesulfonate]	87 to 88 °C	–	–	–	–
COc1ccc([C@H]2[C@@H](OC(=O)CCC(=O)O)C(=O)N2c2cc(OC)c(OC)c(OC)c2)cc1O [Compound 64, 4-(((2S,3R)-2-(3-hydroxy-4-methoxyphenyl)-4-oxo-1-(3,4,5-trimethoxyphenyl)azetidin-3-yl)oxy)-4-oxobutanoic acid]	–	6.75	6.99	6.68	7.10
CCOC(=O)CO[C@H]1C(=O)N(c2cc(OC)c(OC)c(OC)c2)[C@H]1c1ccc(OC)c(O)c1 [Compound 65, ethyl 2-(((2S,3R)-2-(3-hydroxy-4-methoxyphenyl)-4-oxo-1-(3,4,5-trimethoxyphenyl)azetidin-3-yl)oxy)acetate]	–	6.17	6.17	6.14	6.37
COc1ccc([C@H]2[C@H](Br)C(=O)N2c2cc(OC)c(OC)c(OC)c2)cc1O [Compound 66, (3S,4S)-3-bromo-4-(3-hydroxy-4-methoxyphenyl)-1-(3,4,5-trimethoxyphenyl)azetidin-2-one]	–	7.89	8.00	8.05	8.10
COc1ccc([C@H]2CC(=O)N2c2cc(OC)c(OC)c(OC)c2)cc1O [Compound 67, (R)-4-(3-hydroxy-4-methoxyphenyl)-1-(3,4,5-trimethoxyphenyl)azetidin-2-one]	–	7.52	7.55	7.62	7.66
COc1ccc([C@H]2[C@H](NC(C)=O)C(=O)N2c2cc(OC)c(OC)c(OC)c2)cc1O [Compound 77, N-((2S,3S)-2-(3-hydroxy-4-methoxyphenyl)-4-oxo-1-(3,4,5-trimethoxyphenyl)azetidin-3-yl)acetamide]	–	7.46	7.33	7.49	7.48
COc1ccc([C@H]2[C@H](NC(=O)c3ccccc3)C(=O)N2c2cc(OC)c(OC)c(OC)c2)cc1O [Compound 78, N-((2S,3S)-2-(3-hydroxy-4-methoxyphenyl)-4-oxo-1-(3,4,5-trimethoxyphenyl)azetidin-3-yl)benzamide]	–	7.62	7.33	7.35	7.57
COc1ccc([C@H]2[C@H](NS(C)(=O)=O)C(=O)N2c2cc(OC)c(OC)c(OC)c2)cc1O [Compound 79, N-((2S,3S)-2-(3-hydroxy-4-methoxyphenyl)-4-oxo-1-(3,4,5-trimethoxyphenyl)azetidin-3-yl)methanesulfonamide]	–	6.72	6.60	6.64	6.79
COc1ccc([C@@H]2N(c3cc(OC)c(OC)c(OC)c3)C(=O)[C@]2(O)CO)cc1O [Compound 80, (3R,4S)-3-hydroxy-4-(3-hydroxy-4-methoxyphenyl)-3-(hydroxymethyl)-1-(3,4,5-trimethoxyphenyl)azetidin-2-one]	–	5.47	5.35	5.52	5.75
COC[C@@]1(OC)C(=O)N(c2cc(OC)c(OC)c(OC)c2)[C@H]1c1ccc(OC)c(O)c1 [Compound 81, (3R,4S)-4-(3-hydroxy-4-methoxyphenyl)-3-methoxy-3-(methoxymethyl)-1-(3,4,5-trimethoxyphenyl)azetidin-2-one]	–	5.59	5.58	5.61	5.76
C=C1C(=O)N(c2cc(OC)c(OC)c(OC)c2)[C@H]1c1cccc(O)c1 [Compound 85, (S)-4-(3-hydroxyphenyl)-3-methylene-1-(3,4,5-trimethoxyphenyl)azetidin-2-one]	–	4.82	5.18	4.84	4.98
C=C1C(=O)N(c2cc(OC)c(OC)c(OC)c2)[C@H]1c1cccc(OC)c1 [Compound 86, (S)-4-(3-methoxyphenyl)-3-methylene-1-(3,4,5-trimethoxyphenyl)azetidin-2-one]	–	4.91	5.20	5.09	5.64
C=C1C(=O)N(c2cc(OC)c(OC)c(OC)c2)[C@H]1c1ccc(C)cc1 [Compound 87, (S)-3-methylene-4-(p-tolyl)-1-(3,4,5-trimethoxyphenyl)azetidin-2-one]	–	6.68	6.71	6.58	6.90
C=C1C(=O)N(c2cc(OC)c(OC)c(OC)c2)[C@H]1c1ccc(C(C)C)cc1 [Compound 88, (S)-4-(4-isopropylphenyl)-3-methylene-1-(3,4,5-trimethoxyphenyl)azetidin-2-one]	–	5.66	5.59	5.61	5.67
C=C1C(=O)N(c2cc(OC)c(OC)c(OC)c2)[C@H]1c1ccc(OC)c(OC(=O)c2ccc(OC)cc2)c1 [Compound 96, (S)-2-methoxy-5-(3-methylene-4-oxo-1-(3,4,5-trimethoxyphenyl)azetidin-2-yl)phenyl 4-methoxybenzoate]	–	6.86	6.55	6.59	6.90
C=C1C(=O)N(c2cc(OC)c(OC)c(OC)c2)[C@@H]1c1ccc(OC)c(O)c1 [Compound 98, (R)-4-(3-hydroxy-4-methoxyphenyl)-3-methylene-1-(3,4,5-trimethoxyphenyl)azetidin-2-one]	–	< 4.70	< 4.70	< 4.70	< 4.70
COc1ccc([C@@H]2[C@H](C)C(=O)N2c2cc(OC)c(OC)c(OC)c2)cc1O [Compound 101, (3S,4S)-4-(3-hydroxy-4-methoxyphenyl)-3-methyl-1-(3,4,5-trimethoxyphenyl)azetidin-2-one]	–	5.41	5.29	5.49	5.24
COc1ccc([C@@H]2[C@@H](C)C(=O)N2c2cc(OC)c(OC)c(OC)c2)cc1O [Compound 102, (3R,4S)-4-(3-hydroxy-4-methoxyphenyl)-3-methyl-1-(3,4,5-trimethoxyphenyl)azetidin-2-one]	–	6.09	5.97	6.19	6.11
COc1ccc([C@H]2[C@@H](C)C(=O)N2c2cc(OC)c(OC)c(OC)c2)cc1N [Compound 103, (3R,4R)-4-(3-amino-4-methoxyphenyl)-3-methyl-1-(3,4,5-trimethoxyphenyl)azetidin-2-one]	–	7.21	7.09	7.11	7.11
COc1ccc([C@H]2[C@H](C)C(=O)N2c2cc(OC)c(OC)c(OC)c2)cc1N [Compound 104, (3S,4R)-4-(3-amino-4-methoxyphenyl)-3-methyl-1-(3,4,5-trimethoxyphenyl)azetidin-2-one]	–	7.43	7.49	7.60	7.70
COc1ccc([C@@H]2N(c3cc(OC)c(OC)c(OC)c3)C(=O)C23CC3)cc1O [Compound 105, (S)-6-(3-hydroxy-4-methoxyphenyl)-5-(3,4,5-trimethoxyphenyl)-5-azaspiro[2.3]hexan-4-one]	–	6.36	6.49	6.41	6.52
CC[C@H]1C(=O)N(c2cc(OC)c(OC)c(OC)c2)[C@H]1c1ccc(OC)c(O)c1 [Compound 106, (3R,4R)-3-ethyl-4-(3-hydroxy-4-methoxyphenyl)-1-(3,4,5-trimethoxyphenyl)azetidin-2-one]	–	6.49	6.54	6.67	6.60
C=C1C(=O)N(c2cc(OC)c(OC)c(OC)c2)[C@H]1c1ccc(OC)c(OS(=O)(=O)F)c1 [Compound 107, (S)-2-methoxy-5-(3-methylene-4-oxo-1-(3,4,5-trimethoxyphenyl)azetidin-2-yl)phenyl sulfofluoridate]	–	6.76	6.67	6.75	6.92
COc1ccc([C@H]2[C@@H](C)C(=O)N2c2cc(OC)c(OC)c(OC)c2)cc1OS(=O)(=O)F [Compound 108, 2-methoxy-5-((2R,3R)-3-methyl-4-oxo-1-(3,4,5-trimethoxyphenyl)azetidin-2-yl)phenyl sulfofluoridate]	–	7.27	7.40	7.21	7.46
COc1ccc([C@H]2[C@H](C)C(=O)N2c2cc(OC)c(OC)c(OC)c2)cc1OS(=O)(=O)F [Compound 109, 2-methoxy-5-((2R,3S)-3-methyl-4-oxo-1-(3,4,5-trimethoxyphenyl)azetidin-2-yl)phenyl sulfofluoridate]	–	7.29	7.64	7.47	7.68
